The text below walks through data of patent US8952162B2, “Triazolopyridines as phosphodiesterase inhibitors for treatment of dermal diseases” (Leo Pharma A/S, priority 2008, dated 2015).

Sequence of Human recombinant PDE4 (Genbank accession no NM—006203) (Q08499 1-673 isoform Q08499-2): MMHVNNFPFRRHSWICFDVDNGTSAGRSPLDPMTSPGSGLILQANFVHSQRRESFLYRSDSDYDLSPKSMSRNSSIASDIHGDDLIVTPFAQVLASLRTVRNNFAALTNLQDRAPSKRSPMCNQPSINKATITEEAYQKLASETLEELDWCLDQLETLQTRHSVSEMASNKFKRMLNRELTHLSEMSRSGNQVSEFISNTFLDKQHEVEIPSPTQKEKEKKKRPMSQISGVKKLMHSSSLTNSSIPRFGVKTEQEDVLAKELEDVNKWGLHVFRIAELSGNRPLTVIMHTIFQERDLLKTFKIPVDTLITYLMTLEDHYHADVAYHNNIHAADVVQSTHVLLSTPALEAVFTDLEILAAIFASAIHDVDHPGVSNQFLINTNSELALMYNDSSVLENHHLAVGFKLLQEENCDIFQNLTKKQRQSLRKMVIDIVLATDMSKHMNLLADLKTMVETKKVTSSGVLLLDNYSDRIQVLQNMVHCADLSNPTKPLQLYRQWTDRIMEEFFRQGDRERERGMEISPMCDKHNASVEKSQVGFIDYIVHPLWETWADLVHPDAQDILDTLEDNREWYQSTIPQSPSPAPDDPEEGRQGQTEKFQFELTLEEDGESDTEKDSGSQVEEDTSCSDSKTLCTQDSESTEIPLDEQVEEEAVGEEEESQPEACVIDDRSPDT

The target in this test is Human recombinant PDE4 (Genbank accession no NM—006203) (Homo sapiens, UniProt Q08499). The test is described as follows: PDE4 assay (SPA, cAMP cleavage). It is filed as biochemical. The conditions noted are these: Example 53; PDE4 assay as in example 52; read-out: PDE4 IC50 range. How it is done:
At the end of the incubation, the cleavage of the substrate was evaluated by the binding of the AMP product to SPA beads, which generate chemoluminescence when bound to the radioactive tracer. The AMP product inhibited the binding of the radioactive tracer to the beads, and the luminescent signal was competed.
For `COc1ccc(-c2ccc(C#N)cc2)n2nc(C3(C(=O)NCCN(C)S(C)(=O)=O)CC3)nc12` [Compound 220, 1-[5-(4-Cyano-phenyl)-8-methoxy-[1,2,4]triazolo[1,5-a]pyridin-2-yl]-cyclopropanecarboxylic acid [2-(methanesulfonyl-methyl-amino)-ethyl]-amide], the half-inhibitory concentration (IC50) (commonly the concentration at which inhibition is half-maximal) was less than 0.5 µM.
As for `COc1ccc(-c2cccc(C(C)=O)c2)n2nc(C3(C(=O)NCc4cccnc4)CC3)nc12` [Compound 221, 1-[5-(3-Acetyl-phenyl)-8-methoxy-[1,2,4]triazolo[1,5-a]pyridin-2-yl]-cyclopropanecarboxylic acid (pyridin-3-ylmethyl)-amide], the IC50 is less than 0.5 µM.
Turning to `COc1ccc(-c2cccc(C(C)=O)c2)n2nc(C3(C(=O)N4CCN(C)CC4)CC3)nc12` [Compound 222, 1-(3-{8-Methoxy-2-[1-(4-methyl-piperazine-1-carbonyl)-cyclopropyl]-[1,2,4]triazolo[1,5-a]pyridin-5-yl}-phenyl)-ethanone], the IC50 is 0.5 to 1 µM.
In the case of `COc1ccc(-c2cccc(C(C)=O)c2)n2nc(C3(C(=O)N4CCOCC4)CC3)nc12` [Compound 223, 1-(3-{8-Methoxy-2-[1-(morpholine-4-carbonyl)-cyclopropyl]-[1,2,4]-triazolo[1,5-a]pyridin-5-yl}-phenyl)-ethanone], the IC50 is less than 0.5 µM.
With `COc1ccc(-c2cccc(C(C)=O)c2)n2nc(C3(C(=O)NCc4ccccc4)CC3)nc12` [Compound 224, 1-[5-(3-Acetyl-phenyl)-8-methoxy-[1,2,4]triazolo[1,5-a]pyridin-2-yl]-cyclopropanecarboxylic acid benzylamide], the IC50 is less than 0.5 µM.
The value for `COc1ccc(-c2cccc(C(C)=O)c2)n2nc(C3(C(=O)NCCS(N)(=O)=O)CC3)nc12` [Compound 225, 1-[5-(3-Acetyl-phenyl)-8-methoxy-[1,2,4]triazolo[1,5-a]pyridin-2-yl]-cyclopropanecarboxylic acid (2-sulfamoyl-ethyl)-amide] was less than 0.5 µM; that for `COc1ccc(-c2cccc(C(C)=O)c2)n2nc(C3(C(=O)NCCS(C)(=O)=O)CC3)nc12` [Compound 226, 1-[5-(3-Acetyl-phenyl)-8-methoxy-[1,2,4]triazolo[1,5-a]pyridin-2-yl]-cyclopropanecarboxylic acid (2-methanesulfonyl-ethyl)-amide] was less than 0.5 µM; that for `COc1ccc(-c2cccc(C#N)c2)n2nc(C3(C(=O)NCCO)CC3)nc12` [Compound 228, 1-[5-(3-Cyano-phenyl)-8-methoxy-[1,2,4]triazolo[1,5-a]pyridin-2-yl]-cyclopropanecarboxylic acid (2-hydroxy-ethyl)-amide] was less than 0.5 µM.
`CCCNC(=O)OCC1(c2nc3c(OC)ccc(-c4ccc5c(c4)CCC5=O)n3n2)CC1` [Compound 230, Propyl-carbamic acid 1-[8-methoxy-5-(1-oxo-indan-5-yl)-[1,2,4]triazolo[1,5-a]pyridin-2-yl]-cyclopropylmethyl ester]: the IC50 is less than 0.5 µM.
Next, `COc1cc(-c2ccc(OC)c3nc(C4(COC(=O)N(C)C)CC4)nn23)ccc1C#N` [Compound 231, Dimethyl-carbamic acid 1-[5-(4-cyano-3-methoxy-phenyl)-8-methoxy-[1,2,4]triazolo[1,5-a]pyridin-2-yl]-cyclopropylmethyl ester]: less than 0.5 µM; `COc1ccc(-c2cncc(C#N)c2)n2nc(C3(COC(=O)NC(C)C)CC3)nc12` [Compound 232, Isopropyl-carbamic acid 1-[5-(5-cyano-pyridin-3-yl)-8-methoxy-[1,2,4]triazolo[1,5-a]pyridin-2-yl]-cyclopropylmethyl ester]: less than 0.5 µM; `CCCNC(=O)OCC1(c2nc3c(OC)ccc(-c4cccc5c4CCC5=O)n3n2)CC1` [Compound 233, Propyl-carbamic acid 1-[8-methoxy-5-(1-oxo-indan-4-yl)-[1,2,4]triazolo[1,5-a]pyridin-2-yl]-cyclopropylmethyl ester]: less than 0.5 µM.
For the compound `COc1cc(-c2ccc(OC)c3nc(C4(COC(=O)N5CCCC5)CC4)nn23)ccc1C#N` [Compound 234, Pyrrolidine-1-carboxylic acid 1-[5-(4-cyano-3-methoxy-phenyl)-8-methoxy-[1,2,4]-triazolo[1,5-a]pyridin-2-yl]-cyclopropylmethyl ester], the IC50 was less than 0.5 µM.
In the case of `COc1cc(-c2ccc(OC)c3nc(C4(COC(=O)NC(C)C)CC4)nn23)ccc1C#N` [Compound 235, Isopropyl-carbamic acid 1-[5-(4-cyano-3-methoxy-phenyl)-8-methoxy-[1,2,4]triazolo[1,5-a]pyridin-2-yl]-cyclopropylmethyl ester], the concentration for half-maximal inhibition (IC50) was less than 0.5 µM.
For `CCCNC(=O)OCC1(c2nc3c(OC)ccc(-c4cncc(C#N)c4)n3n2)CC1` [Compound 236, Propyl-carbamic acid 1-[5-(5-cyano-pyridin-3-yl)-8-methoxy-[1,2,4]triazolo[1,5-a]pyridin-2-yl]-cyclopropylmethyl ester], the IC50 is less than 0.5 µM.
As for `CCCNC(=O)OCC1(c2nc3c(OC)ccc(-c4ccc(C#N)c(OC)c4)n3n2)CC1` [Compound 237, Propyl-carbamic acid 1-[5-(4-cyano-3-methoxy-phenyl)-8-methoxy-[1,2,4]triazolo[1,5-a]pyridin-2-yl]-cyclopropylmethyl ester], the IC50 was less than 0.5 µM.
The value for `COc1ccc(-c2ccc3c(c2)CCC3=O)n2nc(C3(COC(=O)N4CCCC4)CC3)nc12` [Compound 238, Pyrrolidine-1-carboxylic acid 1-[8-methoxy-5-(1-oxo-indan-5-yl)-[1,2,4]triazolo[1,5-a]pyridin-2-yl]-cyclopropylmethyl ester] was less than 0.5 µM; that for `COc1ccc(-c2ccc3c(c2)CCC3=O)n2nc(C3(COC(=O)NC(C)C)CC3)nc12` [Compound 239, Isopropyl-carbamic acid 1-[8-methoxy-5-(1-oxo-indan-5-yl)-[1,2,4]triazolo[1,5-a]pyridin-2-yl]-cyclopropylmethyl ester] was less than 0.5 µM; that for `COc1ccc(-c2cccc3c2CCC3=O)n2nc(C3(COC(=O)NC4CCCCC4)CC3)nc12` [Compound 240, Cyclohexyl-carbamic acid 1-[8-methoxy-5-(1-oxo-indan-4-yl)-[1,2,4]triazolo[1,5-a]pyridin-2-yl]-cyclopropylmethyl ester] was less than 0.5 µM.
`COc1cc(-c2ccc(OC)c3nc(C4(COC(=O)NC5CCCCC5)CC4)nn23)ccc1C#N` [Compound 241, Cyclohexyl-carbamic acid 1-[5-(4-cyano-3-methoxy-phenyl)-8-methoxy-[1,2,4]triazolo[1,5-a]pyridin-2-yl]-cyclopropylmethyl ester]: the IC50 is less than 0.5 µM.
With `COc1ccc(-c2cncc(C#N)c2)n2nc(C3(COC(=O)N4CCCC4)CC3)nc12` [Compound 242, Pyrrolidine-1-carboxylic acid 1-[5-(5-cyano-pyridin-3-yl)-8-methoxy-[1,2,4]triazolo[1,5-a]pyridin-2-yl]-cyclopropylmethyl ester], the IC50 was less than 0.5 µM.
Next, `COc1ccc(-c2ccc3c(c2)COC3=O)n2nc(C3(C(=O)NCCS(C)(=O)=O)CC3)nc12` [Compound 269, 1-[8-Methoxy-5-(1-oxo-1,3-dihydro-isobenzofuran-5-yl)-[1,2,4]triazolo[1,5-a]pyridin-2-yl]-cyclopropanecarboxylic acid (2-methanesulfonyl-ethyl)-amide]: less than 0.5 µM; `COc1ccc(-c2ccc3c(c2)COC3=O)n2nc(C3(C(=O)NCC4CCCCC4)CC3)nc12` [Compound 270, 1-[8-Methoxy-5-(1-oxo-1,3-dihydro-isobenzofuran-5-yl)-[1,2,4]triazolo[1,5-a]pyridin-2-yl]-cyclopropanecarboxylic acid cyclohexylmethyl-amide]: less than 0.5 µM.
